According to patent US20260206760A1, “AZOLE COMPOUNDS FOR CONTROLLING AND COMBATING INVERTEBRATE PESTS” (FMC CORPORATION, priority 2022, published 2026):

Tests used:
Format in all cases: in vivo
[1] = system: diamondback moth (Plutella xylostella (L.)); settings: sprayed at 250 ppm; neonate larvae; assessed after 6 days; very good to excellent levels of control efficacy
Protocol: (§1) Test compounds were formulated using a solution containing 10% acetone, 90% water and 300 ppm Activator 90® non-ionic surfactant (Loveland Products, Loveland, Colorado, USA). The formulated compounds were applied in 1 mL of liquid through an atomizer nozzle positioned 1.27 cm (0.5 inches) above the top of each test unit. Test compounds were sprayed at the rates indicated, and each test was replicated three times.
For evaluating control of diamondback moth (Plutella xylostella (L.)) the test unit consisted of a small open container with a 12-14-day-old mustard plant inside. This was pre-infested with ~50 neonate larvae that were dispensed into the test unit via corn cob grits using an inoculator. The larvae moved onto the test plant after being dispensed into the test unit.
Test compounds were formulated and sprayed at 250 and/or 50 ppm. After spraying of the formulated test compound, each test unit was allowed to dry for 1 hour and then a black, screened cap was placed on top. The test units were held for 6 days in a growth chamber at 25° C. and 70% relative humidity. Plant feeding damage was then visually assessed based on foliage consumed, and larvae were assessed for mortality.

[2] = system: cotton melon aphid (Aphis gossypii (Glover)); assay: whole plant or invertebrate; settings: 144 h, assessed after 6 days; for mortality at 50 ppm: sprayed at 50 ppm
Protocol: as §1
For evaluating control of cotton melon aphid (Aphis gossypii (Glover)) through contact and/or systemic means, the test unit consisted of a small open container with a 5-day-old okra plant inside. This was pre-infested with 30-40 insects on a piece of leaf according to the cut-leaf method, and the soil of the test unit was covered with a layer of sand.
Test compounds were formulated and sprayed at 250 and/or 50 ppm. After spraying, the test units were maintained in a growth chamber for 6 days at 19° C. and 70% relative humidity. Each test unit was then visually assessed for insect mortality.

[3] = system: corn planthopper (Peregrinus maidis (Ashmead)); assay: whole plant or invertebrate; settings: 144 h, sprayed at 50 ppm, nymphs, assessed after 6 days
Protocol: as §1
For evaluating control of corn planthopper (Peregrinus maidis (Ashmead)) through contact and/or systemic means, the test unit consisted of a small open container with a 3-4-day-old corn (maize) plant inside. White sand was added to the top of the soil prior to application of the test compound.
Test compounds were formulated and sprayed at 250 and/or 50 ppm and/or 10 ppm. After spraying of the formulated test compound, the test units were allowed to dry for 1 h before they were post-infested with ~15-20 nymphs (18-to-21-day-old). A black, screened cap was placed on the top of each test unit, and the test units were held for 6 days in a growth chamber at 22-24° C. and 50-70% relative humidity. Each test unit was then visually assessed for insect mortality.

[4] = system: green peach aphid (Myzus persicae (Sulzer)); assay: Test B: control of green peach aphid, spray on radish plant, visual mortality; settings: 144 h, assessed after 6 days; for mortality at 50 ppm: sprayed at 50 ppm
Protocol: as §1
For evaluating control of green peach aphid (Myzus persicae (Sulzer)) through contact and/or systemic means, the test unit consisted of a small open container with a 12-15-day-old radish plant inside. This was pre-infested by placing on a leaf of the test plant 30-40 aphids on a piece of leaf excised from a culture plant (cut-leaf method). The aphids moved onto the test plant as the leaf piece desiccated. After pre-infestation, the soil of the test unit was covered with a layer of sand.
Test compounds were formulated and sprayed at 250 and/or 50 ppm. After spraying of the formulated test compound, each test unit was allowed to dry for 1 hour and then a black, screened cap was placed on top. The test units were held for 6 days in a growth chamber at 19-21° C. and 50-70% relative humidity. Each test unit was then visually assessed for insect mortality.

[5] = system: sweetpotato whitefly (Bemisia tabaci (Gennadius)); assay: whole plant or invertebrate; settings: 312 h, sprayed at 50 ppm, eggs on cotton leaf, assessed after 13 days
Protocol: as §1
For evaluating control of the sweetpotato whitefly (Bemisia tabaci (Gennadius)) through contact and/or systemic means, the test unit consisted of a small open container with a 12-14-day-old cotton plant inside. Prior to the spray application, both cotyledons were removed from the plant, leaving one true leaf for the assay. Adult whiteflies were allowed to lay eggs on the plant and then were removed from the test unit. Cotton plants infested with at least 15 eggs were submitted to the test for spraying.
Test compounds were formulated and sprayed at 50 and/or 10 ppm. After spraying, the test units were allowed to dry for 1 hour. The cylinders were then removed, and the units were taken to a growth chamber and held for 13 days at 28° C. and 50-70% relative humidity. Each test unit was then visually assessed for insect mortality.

| SMILES | control efficacy (feeding damage and/or mortality) [1] | mortality at 50 ppm [2] [%] | mortality at 50 ppm [3] [%] | mortality at 50 ppm [4] [%] | mortality at 250 ppm ([2]; sprayed at 250 ppm) [%] | mortality at 50 ppm [5] [%] | mortality at 250 ppm ([4]; sprayed at 250 ppm) [%] |
| --- | --- | --- | --- | --- | --- | --- | --- |
| Fc1cncc(-n2ccnn2)c1C1CC1c1ccc(C(F)(F)F)cc1 (stereo not shown) [Compound 3, 3-fluoro-5-(triazol-1-yl)-4-[2-[4-(trifluoromethyl)phenyl]cyclopropyl]pyridine] | 40% or less feeding damage and/or 100% mortality | – | – | – | – | – | – |
| FC(F)(F)Oc1ccc(/C=C/c2ccncc2-n2nccn2)cc1 [Compound 1, 3-(1,2,3-triazol-2-yl)-4-[(1E)-2-[4-(trifluoromethoxy)phenyl]ethenyl]pyridine] | – | ≥ 80 | ≥ 80 | ≥ 80 | – | – | – |
| Fc1cncc(-n2nccn2)c1C1CC1c1ccc(C(F)(F)F)cc1 (stereo not shown) [Compound 4, 3-fluoro-5-(triazol-2-yl)-4-[2-[4-(trifluoromethyl)phenyl]cyclopropyl]pyridine] | 40% or less feeding damage and/or 100% mortality | ≥ 80 | – | ≥ 80 | ≥ 80 | ≥ 70 | ≥ 80 |
